From patent US20250009763A1, “METHODS FOR EXTENDING LIFESPAN AND/OR DELAYING AGING” (priority 2023, published 2025) come the findings set out here.

Assay [1] has as its system yeast MEP strain ZHY2. In words: Mother enrichment program (MEP) assay. Format: cell-based, Saccharomyces cerevisiae. Conditions: 0-100 μM PN6, particularly above 10 μM; FIGS. 1A-1D. The procedure:
The MEP strain ZHY2 cells were cultured at 30° C. overnight in liquid yeast 5 extract peptone dextrose (YEPD) medium containing 0, 0.1, 0.5, 2, 10, 25, 50, or 100 μM PN6, and the cultures were diluted to A600=0.25 and recovered to the log phase. Cultures were counted and inoculated in culture tubes at a cell density of 2×10^3 cells/ml. Estradiol was added to the mixtures to achieve a final concentration of 1 μM, and the mixtures were incubated in a roller drum at 50 rpm and 30° C. for 60 hours. Each group was monitored by harvesting samples at the indicated time points. The collected samples were washed and plated in solid YEPD media without estradiol, and the viability is reported as CFUs per 500 μl. The software OpenCFU 3.8 was used to calculate colonies.

Assay [2] concerns tor1Δ deletion strain of yeast. In words: RLS of tor1Δ deletion strain. Format: cell-based, Saccharomyces cerevisiae. Conditions: data not shown.
Assay [3] concerns aged C57BL/6J mice. In words: Grip strength test. The format is in vivo, mouse. Conditions: forelimbs, hindlimbs and all four limbs; mid-term and long-term; versus SD group; FIGS. 4E-4G. As for the experimental part: The grip strength of the male C57BL/6J mice was measured at 87 weeks (mid-term) and 111 weeks (long-term) of age using an adjustable metallic grid mounted with a force sensor (DTG-5, DigiTech, JP). To conduct the test, the mice were placed on the aforementioned test device and were held gently by the tail, allowing them to grip the grid with forelimbs, hindlimbs, or four limbs (for measuring 2-paw and 4-paw grip strength, respectively). The device automatically measured and recorded the peak force in grams (g). Five trials were performed for each test, and the mean values were used to determine the grip strength of each mouse. Mid-term: SD, n=30; PN6, n=8; long-term: SD, n=23; PN6, n=8.

Assay [4] has as its system aged C57BL/6J mice. Description: Glucose tolerance. The format is in vivo, mouse. The following applies: between the two treatment groups; data not shown.

In the case of `CCC(CC[C@@H](C)C1CCC2C3CC(=O)[C@H]4C[C@@H](O)CC[C@]4(C)C3CC[C@@]21C)C(C)C` (stereo in doubt) [PN6, (24S)-3β-hydroxy-5α-stigmastan-6-one], the “viability of yeast ZHY2” value in assay [1] was “increased proportionally with the concentration of PN6”. For the same compound, in assay [2], the “ability to increase yeast RLS upon deletion of the TOR1 gene” value is reported as “not affected”. In addition, the grip strength result in assay [3] is listed as “increased grip strength”. For the same compound, in assay [4], the glucose tolerance entry is recorded as “no significant differences”.
